The record followed here is patent US20070248597A1, “Methods of decreasing vascular calcification using IL-1 inhibitors” (priority 2005, published 2007).

What all share (type): in vivo, rat
One test concerns 5/6 nx uremic rats. The test can be described thus: Aortic calcification (Von Kossa, pathologist score) in 5/6-nephrectomy model of CKD and secondary HPT. The note with it: for aortic calcification severity (Von Kossa calcification score): 5/6Nx male SD rats, uremia established 8 weeks, treatment week 4, Fc-IL-1ra 100 mg/kg/day s.c., calcitriol 30 ng. An excerpt:
We administered the IL-1 receptor antagonist Fc-IL-1ra, calcitriol, the combination of Fc-IL-1ra+calcitriol) or their corresponding vehicles to a rodent animal model of chronic kidney disease (CKD) and secondary hyperparathyroidism (SHPT) induced by subtotal nephrectomy (5/6Nx). The experimental paradigm is shown in FIG. 5, with the treatment groups set out in Table 2 below.
Aortas were removed at treatment week 4 (trt wk4), fixed and stained for mineralization (Von Kossa) and the severity determined and scored by a pathologist blinded to the treatments (Calcification Scores: 0=no calcification; 1=minimal; 2=mild; 3=moderate; 4=marked; 5=severe).

Test [1] concerns adenine-induced CKD/SHPT rats. Nature of the test: Aortic vascular calcification (bone mineral density of isolated aortas, Dxa scanner) in adenine model of CKD/SHPT. The method, then: (§1) Adenine, included as a dietary supplement (0.75%), was fed to adult, male Sprague-Dawley rats. Blood for chemistry analyses (total serum calcium, phosphorous, blood urea nitrogen [BUN], creatinine, PTH) was collected before and again on drug treatment days 0 (pretreatment) and 21 from the retro-orbital sinus of anesthetized rats. Blood (0.5 ml) was collected for PTH levels into SST (clot activator) brand blood tubes and allowed to clot. Serum was removed and stored at −70° C. until assayed. PTH levels were quantified according to the vendor's instructions using rat PTH (1-34) immunoradiometric assay kit (Immutopics, San Clemente, Calif.). Calcium and phosphorous were measured using a blood chemistry analyzer (AU 400; Olympus, Melville, N.Y.).
Vascular calcification was assessed by quantifying the bone mineral density from fixed (formalin, PBS), isolated aortas using a Dxa scanner (Piximus densitomer, GE Healthcare).

Test [2] deals with adenine-induced CKD/SHPT rats. The test can be described thus: Blood chemistry (BUN, creatinine, PTH) in adenine model of CKD/SHPT. Here is the method:
as §1

Test [3] relates to adenine-induced CKD/SHPT rats. The test can be described thus: Parathyroid gland size in adenine model of CKD/SHPT. Particulars: FIG. 3A, p=0.009 vs A5S vehicle (n=13 vs n=8).

As to `C=C1/C(=C\C=C2/CCC[C@]3(C)[C@@H]([C@H](C)CCCC(C)(C)O)CC[C@@H]23)C[C@@H](O)C[C@@H]1O` [calcitriol, 1α, 25-dihydroxycholecalciferol, reference compound], the “aortic calcification severity (Von Kossa calcification score)” value in the test with 5/6 nx uremic rats is on record as “marked to severe”. For the same compound, in the test with 5/6 nx uremic rats (5/6Nx uremic rats, treatment week 4, n=8 evaluated), the “incidence of severe calcification” value is on record as 50%.
In the case of “Fc-IL-1ra: molecule having the sequence shown in FIG. 4 (SEQ ID NO: 1); fusion protein comprising IL-1ra; IL-1 receptor antagonist”, the “bone mineral density (aortic calcification)” value in test [1] (adenine diet 0.75%, male Sprague-Dawley rats, Fc-IL-1ra n=7 vs A5S vehicle n=4, p=0.005 unpaired t-test) amounted to 0 g/cm2. Further, the “development of aortic vascular calcification (bone mineral density content of the aorta)” value in test [1] (adenine model, FIG. 2) is on record as “prevented”. In addition, the “animals with no calcification” value in test [1] (adenine model, Fc-IL-1ra-treated animals) is given as “seven of seven”. Besides, in the test with 5/6 nx uremic rats, the “aortic calcification severity (Von Kossa calcification score)” value is “did not cause vascular calcification”. For the same compound, the “calcitriol (Vitamin D3)-induced aortic vascular calcification” value in the test with 5/6 nx uremic rats (5/6Nx rats, Fc-IL-1ra 100 mg/kg/day s.c. + calcitriol 30 ng, week 4, FIG. 6) is on record as “attenuated”. In test [2], the BUN result is given as “did not affect” and the creatinine levels entry is reported as “did not affect”. The “serum PTH levels” value in test [2] (FIG. 3B, p=0.028 vs A5S vehicle (n=7 vs n=4)) is listed as “decreased”. Also, the “size of the parathyroid gland” value in test [3] is “reduced”.
